Source: patent US10167247B2, “Solid forms of treprostinil” (United Therapeutics Corporation, priority 2013, dated 2019)

Assays:
Format in all cases: physicochemical
[1] = Stability tests of anhydrous treprostinil on standing
Protocol: An anhydrous form of treprostinil has been previously described, e.g., in J. Org. Chem. 2004, 69, 1890-1902. The anhydrous form is not stable at room temperature. […] A larger amount of dimers can form at higher temperatures. However, dimer formation is negligible at 5° C. Therefore, anhydrous treprostinil must be refrigerated for storage and transport. In the past, anhydrous treprostinil had to be refrigerated and shipped with ice packs to maintain low (2° C.-8° C.) temperatures.

[2] = Dynamic vapor sorption (DVS); settings: for DVS weight loss: 95 to 5% RH
Protocol: DVS data were collected on a VTI SGA-100 Vapor Sorption Analyzer. NaCl and PVP were used as calibration standards. Samples were not dried prior to analysis. Sorption and desorption data were collected over a range from 5 to 95% RH (or 55 to 95% RH for Form B) at 10% RH increments under a nitrogen purge. The equilibrium criterion used for analysis was less than 0.0100% weight change in 5 minutes with a maximum equilibration time of 3 hours. Data were not corrected for the initial moisture content of the samples.

[3] = TG-IR heating, post-TG-IR XRPD; settings: heated 25-97° C.
Protocol: Thermogravimetric infrared (TG-IR) analysis was performed on a TA Instruments thermogravimetric (TG) analyzer model 2050 interfaced to a Magna-IR 560® Fourier transform infrared (IR) spectrophotometer (Thermo Nicolet) equipped with an Ever-Glo mid/far IR source, a potassium bromide (KBr) beamsplitter, and a mercury cadmium telluride (MCT-A) detector. The IR wavelength verification was performed using polystyrene, and the TG calibration standards were nickel and Alumel™. The sample was placed in a platinum sample pan, and the pan was inserted into the TG furnace. The TG instrument was started first, immediately followed by the FT-IR instrument. The TG instrument was operated under a flow of helium at 90 and 10 cc/min for the purge and balance, respectively. The furnace was heated under helium at a rate of 20° C./minute to a final temperature of 97° C. IR spectra were collected approximately every 16 seconds for approximately 13 minutes. Each IR spectrum represents 16 co-added scans collected at a spectral resolution of 4 cm^−1. Volatiles were identified from a search of the High Resolution Nicolet Vapor Phase spectral library (v. 1990-1994).

[4] = Environmental stress (temperature / relative humidity), solid form by XRPD
Protocol: The mesophase treprostinil of FIG. 31 are formed, from top to bottom, from the following solutions: (1) 0.40 water activity slurry with acetone 2 days; (2) DCM slurry 60 to 30° C.; (3) 0.80 water activity slurry with isopropanol 7 days; (4) 1-propanol/water 1:1 v/v slurry ambient temperature; (5) Form B+A+mesophase 50° C. 7 days, (6) Acetonitrile slurry ambient temperature; (7) Form A 50° C. 15 hours; (8) Methanol/ethyl acetate evaporation; (9) Toluene crash precipitation from methyl ethyl ketone.
Solids were stressed in glass vials under various drying and relative humidity (RH) environments for specified times, generally monitoring weight change during stressing. Drying was done via ambient, P2O5, vacuum (ambient and elevated temperatures), and convection oven experiments, for which the only drying condition listed in the tables is the oven temperature. Ambient experiments were conducted by leaving samples exposed in a laboratory fume hood. Specific RH values were achieved by placing the sample inside sealed chambers containing saturated salt solutions or into separate chambers containing P2O5 powder for 0% RH. The salt solutions were selected and prepared based an ASTM standard procedure. For vacuum experiments, vials were covered with nylon filters to prevent potential solid loss. For the elevated temperature experiments, temperature was measured by a NIST-traceable thermometer. […]

## CCCCC[C@H](O)CC[C@@H]1[C@H]2Cc3cccc(OCC(=O)O)c3C[C@H]2C[C@H]1O [anhydrous treprostinil, 2-((1R,2R,3aS,9aS)-2-hydroxy-1-((S)-3-hydroxyoctyl)-2,3,3a,4,9,9a-hexahydro-1H-cyclopenta[b]naphthalen-5-yloxy)acetic acid]
[1]; 5° C.
  Dimer formation: negligible
[1]; 25° C., dimers formed upon standing
  Stability: not stable

## CCCCC[C@H](O)CC[C@@H]1[C@H]2Cc3cccc(OCC(=O)O)c3C[C@H]2C[C@H]1O [Treprostinil monohydrate Form B, 2-((1R,2R,3aS,9aS)-2-hydroxy-1-((S)-3-hydroxyoctyl)-2,3,3a,4,9,9a-hexahydro-1H-cyclopenta[b]naphthalen-5-yloxy)acetic acid]
[2]; 55 to 95% RH
  DVS weight gain: 0.4% weight gain 55 to 95% RH
[2]
  DVS weight loss: 0.6% weight loss 95 to 5% RH
[2]; equilibration at 55% RH
  DVS weight gain upon equilibration: 0.3% weight gain upon equilibration at 55% RH

## CCCCC[C@H](O)CC[C@@H]1[C@H]2Cc3cccc(OCC(=O)O)c3C[C@H]2C[C@H]1O [Treprostinil Form C, 2-((1R,2R,3aS,9aS)-2-hydroxy-1-((S)-3-hydroxyoctyl)-2,3,3a,4,9,9a-hexahydro-1H-cyclopenta[b]naphthalen-5-yloxy)acetic acid]
[2]; 5 to 75% RH
  DVS weight gain: 0.2% weight gain 5 to 75% RH
[2]; 75 to 95% RH
  DVS weight gain: 4.6% weight gain 75 to 95% RH
[2]
  DVS weight loss: 0.5% weight loss 95 to 5% RH
[2]; after sorption/desorption cycle
  post-DVS XRPD (solid form after DVS): B + A
[2]; equilibration at 5% RH
  DVS weight loss upon equilibration: 0.1% weight loss upon equilibration at 5% RH

## CCCCC[C@H](O)CC[C@@H]1[C@H]2Cc3cccc(OCC(=O)O)c3C[C@H]2C[C@H]1O [Treprostinil monohydrate Form A, 2-((1R,2R,3aS,9aS)-2-hydroxy-1-((S)-3-hydroxyoctyl)-2,3,3a,4,9,9a-hexahydro-1H-cyclopenta[b]naphthalen-5-yloxy)acetic acid]
[3]
  Post-TG-IR XRPD (solid form after heating): mesophase
[4]; 50° C. 15 hours
  Solid form after stress (XRPD): mesophase
[2]; 5 to 95% RH
  DVS weight gain: 0.7% weight gain 5 to 95% RH
[2]
  DVS weight loss: 0.6% weight loss 95 to 5% RH

## CCCCC[C@H](O)CC[C@@H]1[C@H]2Cc3cccc(OCC(=O)O)c3C[C@H]2C[C@H]1O [Mesophase treprostinil, 2-((1R,2R,3aS,9aS)-2-hydroxy-1-((S)-3-hydroxyoctyl)-2,3,3a,4,9,9a-hexahydro-1H-cyclopenta[b]naphthalen-5-yloxy)acetic acid]
[4]; 97% RH 12 days
  Solid form after stress (XRPD): mesophase+weak Form B
